# Experimental data reported in patent US20210000842A1, “TETRACYCLINE MANAGEMENT OF EGFR INHIBITOR ASSOCIATED DERMATOSES” (Foamix Pharmaceuticals Ltd., priority 2015, published 2021).
# Entries after “also recorded” stand apart in the source; their conditions may differ.
# Tests used:
# Format in all cases: physicochemical
# [1] = Compatibility study of minocycline hydrochloride with excipients (visual inspection); conditions: for Compatibility with MCH: hydrophilic solvents: MCH: excipient 1:250, suspension at 25° C. and 40° C. for maximum of sixty days; for Compatibility with Minocycline HCl: summary, tested after the storage for up to 3 weeks; for Compatibility with Minocycline HCl (discussion of compatibility studies): excipient named as label, storage up to 3 weeks; for Effect of added antioxidant on MCH degradation: MCH suspensions comprising water or non-compatible excipients; for Compatibility with MCH: surfactants: MCH:excipient 1:50, surfactant solubilized in mineral oil; for Compatibility with MCH: surfactants / Compatibility with MCH: oily emollients and waxes: 25° C. and 40° C.; for Compatibility with MCH: oily emollients and waxes: MCH:excipient 1:250 for oily emollients and 1:50 for waxes, max sixty days; for Effect of added anti-oxidant on oxidation of Minocycline HCl: waterless medium of propylene glycol and PEG 200
# Protocol: (§1) Active agent is incubated with various excipients individually at one or more temperatures and at different ratios of active agent to a single excipient for a certain fixed period or to the point where degradation was suspected. […] Visual inspection is a criterion for indication of compatibility. Any change of color indicates oxidation or degradation. […] Tests are also carried out with combinations of excipients.
# [2] = Doxycycline Hyclate compatibility test; conditions: for Visual inspection after the storage at 50° C. / Visual inspection after the storage at 25° C. / Visual inspection after the storage at 40° C.: stored two weeks; for Effect of added anti-oxidant on oxidation of Doxycycline Hyclate: waterless medium of propylene glycol and PEG 200
# Protocol: as §1
# (§2) A similar compatibility study was conducted for Doxycycline Hyclate and Doxycycline Monohydrate.
# (§3) Different compositions of hydrophilic and hydrophobic solvents containing Doxycycline Hyclate (Set I and Set II) and Doxycycline Monohydrate (Set III) were prepared by weighing the antibiotic in a glass vial and shaking overnight with each solvent investigated.
# Group II included Doxycycline Hyclate mixed with various vehicles with addition of antioxidants like alpha tocopherol, butylated hydroxytoluene (BHT), and ascorbic acid.
# [3] = Doxycycline Monohydrate compatibility test; conditions: for Visual inspection after the storage at 25° C. / Visual inspection after the storage at 40° C. / Visual inspection after the storage at 50° C. / Visual inspection at T-0: mixture of 1.04% w/w Doxycycline Monohydrate with the ingredient; for Visual inspection after the storage at 25° C. / Visual inspection after the storage at 40° C. / Visual inspection after the storage at 50° C.: stored two weeks; for Visual inspection at T-0: two weeks study; for Effect of added anti-oxidant on oxidation of Doxycycline Monohydrate: waterless medium of propylene glycol and PEG 200
# Protocol: Active agent is incubated with various excipients individually at one or more temperatures and at different ratios of active agent to a single excipient for a certain fixed period or to the point where degradation was suspected. The period can be for example 3 or 7 or 14 or 21 or 28 days or longer. Visual inspection is a criterion for indication of compatibility. Any change of color indicates oxidation or degradation. […] Tests are also carried out with combinations of excipients.
# as §2, §3
# A similar compatibility test was performed on another form of Doxycycline—Doxycycline Monohydrate.
# [4] = summary, tested after the storage for up to 3 weeks
# [5] = MCH:excipient 1:50, 25° C. and 40° C., visual inspection
# [6] = mixtures of 1.04% w/w, excipient named as label, storage at 25° C., 40° C. and 50° C. for two weeks, listed as Ethanol 95%
# [7] = mixtures of 1.04% w/w, excipient named as label, storage at 25° C., 40° C. and 50° C. for two weeks, listed as ethanol 95%
# [8] = mixture of 1.04% w/w Doxycycline Hyclate with the ingredient
# [9] = mixtures of 1.04% w/w, excipient named as label, storage at 25° C., 40° C. and 50° C. for two weeks
compound,measurement,setting,value
C[S+](C)[O-] [Dimethyl Sulfoxide],Compatibility with MCH: hydrophilic solvents,[1]; visual inspection,incompatible
CC(O)CO (stereo not shown) [Propylene glycol],Compatibility with MCH: hydrophilic solvents,[1]; visual inspection,incompatible
same,Compatibility with Minocycline HCl,[1],No
same,Compatibility with Doxycycline Hyclate,[2]; [4],No
same,Compatibility with Doxycycline Monohydrate,[3]; [4],No
CCCCCCCCCCCCCCO [Myristyl alcohol],Compatibility with MCH: foam adjuvants,[1]; [5],compatible
same,Compatibility with Minocycline HCl,[1],Yes
same,Compatibility with Doxycycline Hyclate,[2]; [4],Yes
CCCCCCCC/C=C\CCCCCCCC(=O)O [Oleic acid],Compatibility with MCH: foam adjuvants,[1]; [5],compatible
CCO [Ethanol],Compatibility with MCH: hydrophilic solvents,[1]; visual inspection,incompatible
same,Compatibility with Minocycline HCl (discussion of compatibility studies),[1],changed their colour from yellow to orange
same,Compatibility with Minocycline HCl,[1],No
same,Compatibility with Doxycycline Hyclate,[2]; [6],stability
same,Compatibility with Doxycycline Hyclate,[2]; [7],stable
same,Compatibility with Doxycycline Hyclate,[2]; [4],Yes
same,Visual inspection after the storage at 25° C.,[3],Brown solution
same,Visual inspection after the storage at 40° C.,[3],Brown solution
same,Visual inspection after the storage at 50° C.,[3],Black solution
same,Compatibility with Doxycycline Monohydrate,[3]; [6],changed their colour from yellow to orange
same,Compatibility with Doxycycline Monohydrate,[3]; [7],oxidized
same,Compatibility with Doxycycline Monohydrate,[3]; [4],No
CCCOC(=O)c1cc(O)c(O)c(O)c1 [propyl gallate],Effect of added antioxidant on MCH degradation,[1],did not prevent MCH degradation
CCCCCCCCCCCCCCCCCCCCCCO [Behenyl alcohol],Compatibility with MCH: foam adjuvants,[1]; [5],compatible
SPAN 40,Compatibility with MCH: surfactants,[1]; visual inspection,incompatible
CC(C)OC(=O)CCCCC(=O)OC(C)C [Disopropyl adipate],Compatibility with MCH: oily emollients and waxes,[1]; visual inspection,compatible
Cyclomethicone,Compatibility with MCH: oily emollients and waxes,[1]; visual inspection,compatible
OCCCCO [Butylene Glycol],Compatibility with MCH: hydrophilic solvents,[1]; visual inspection,incompatible
same,Compatibility with Minocycline HCl,[1],No
same,Visual inspection after the storage at 50° C.,[2]; [8],Light orange solution
same,Compatibility with Doxycycline Hyclate,[2]; [4],No
same,Visual inspection after the storage at 25° C.,[3],Orange solution
same,Visual inspection after the storage at 50° C.,[3],black solution
same,Compatibility with Doxycycline Monohydrate,[3]; [4],No
CC(C)CCCCCCCCCCCCCCC(=O)O [Isostearic acid],Compatibility with MCH: foam adjuvants,[1]; [5],not compatible
same,Compatibility with Minocycline HCl,[1],No
same,Compatibility with Doxycycline Hyclate,[2]; [4],Yes
CCCCCCCCCCCCCCCCCC(=O)O [Stearic acid],Compatibility with MCH: foam adjuvants,[1]; [5],compatible
CCCCCCCC/C=C\CCCCCCCCO [Oleyl alcohol],Compatibility with MCH: foam adjuvants,[1]; [5],compatible
same,Compatibility with Minocycline HCl,[1],Yes
same,Compatibility with Doxycycline Hyclate,[2]; [4],Yes
SPAN 60,Compatibility with MCH: surfactants,[1]; visual inspection,incompatible
CCCCCCCCCCCCCCCC(=O)O [Palmitic acid],Compatibility with MCH: foam adjuvants,[1]; [5],compatible
CCOCCOCCO [Diethylene glycol monoethyl ether],Compatibility with MCH: hydrophilic solvents,[1]; visual inspection,incompatible
CCCCCCCCCCCCCCCCO [Cetyl alcohol],Compatibility with MCH: foam adjuvants,[1]; [5],compatible
O [water],Effect of addition of water on MCH suspended in compatible excipients,[1]; minimal quantities of water (100 μL) added,prompt degradation of MCH
Sorbitan sesquistearate,Compatibility with MCH: surfactants,[1]; visual inspection,incompatible
CCCCCCCCCCC(CO)CCCCCCCC (stereo not shown) [Octyl dodecanol],Compatibility with MCH: oily emollients and waxes,[1]; visual inspection,compatible
same,Compatibility with Minocycline HCl (discussion of compatibility studies),[1],full compatibility; also recorded: compatible
same,Compatibility with Minocycline HCl,[1],Yes
same,Compatibility with Doxycycline Hyclate,[2]; [9],incompatibility
same,Compatibility with Doxycycline Hyclate,[2]; [4],No
same,Compatibility with Doxycycline Monohydrate,[3]; [9],incompatibility
same,Compatibility with Doxycycline Monohydrate,[3]; [4],No
Sorbitan Monolaurate,Compatibility with Minocycline HCl,[1],No
same,Visual inspection after the storage at 25° C.,[2]; [8],Brown solution
same,Visual inspection after the storage at 40° C.,[2]; [8],Brown solution
same,Visual inspection after the storage at 50° C.,[2]; [8],Black solution
same,Compatibility with Doxycycline Hyclate,[2]; [4],No
same,Visual inspection after the storage at 25° C.,[3],orange solution
same,Visual inspection after the storage at 40° C.,[3],Brown solution
same,Visual inspection after the storage at 50° C.,[3],brown solution
same,Visual inspection at T-0,[3],Brown mixture
same,Compatibility with Doxycycline Monohydrate,[3]; [4],No
CC(C)CCCCCCCCCCCCCCCO [Isostearyl alcohol],Compatibility with MCH: foam adjuvants,[1]; [5],compatible
Cc1c(C)c2c(c(C)c1O)CC[C@@](C)(CCC[C@H](C)CCC[C@H](C)CCCC(C)C)O2 [alpha-tocopherol],Effect of added antioxidant on MCH degradation,[1],did not prevent MCH degradation
same,Effect of added anti-oxidant on oxidation of Minocycline HCl,[1],did not prevent the oxidation
same,Effect of added anti-oxidant on oxidation of Doxycycline Hyclate,[2],did not prevent the oxidation
same,Effect of added anti-oxidant on oxidation of Doxycycline Monohydrate,[3],did not prevent the oxidation
CO[C@H]1CO[C@H]2[C@@H]1OC[C@H]2OC [Dimethyl Isosorbide],Compatibility with MCH: hydrophilic solvents,[1]; visual inspection,incompatible
same,Compatibility with Minocycline HCl,[1],No
same,Visual inspection after the storage at 25° C.,[2]; [8],Yellow solution
same,Visual inspection after the storage at 40° C.,[2]; [8],Brownish orange
same,Visual inspection after the storage at 50° C.,[2]; [8],Orange solution
same,Visual inspection at T-0,"[2]; mixture of 1.04% w/w Doxycycline Hyclate with the ingredient, two weeks study",yellow solution
same,Compatibility with Doxycycline Hyclate,[2]; [4],No
same,Visual inspection after the storage at 25° C.,[3],orange solution
same,Visual inspection after the storage at 40° C.,[3],orange solution
same,Visual inspection after the storage at 50° C.,[3],Orange solution
same,Visual inspection at T-0,[3],yellow solution
same,Compatibility with Doxycycline Monohydrate,[3]; [4],No
CC(C)OC(=O)CCCCC(=O)OC(C)C [Diisopropyl adipate],Compatibility with Minocycline HCl,[1],Yes
same,Compatibility with Doxycycline Hyclate,[2]; [4],Yes
same,Compatibility with Doxycycline Monohydrate,[3]; [4],No
CCCCCCCCCCCCCCCCCC(=O)OCC(O)CO (stereo not shown) [Glyceryl monostearate],Compatibility with MCH: surfactants,[1]; visual inspection,incompatible
C[Si]1(C)O[Si](C)(C)O[Si](C)(C)O[Si](C)(C)O[Si](C)(C)O1 [Cyclomethicone 5 NF],Compatibility with Minocycline HCl,[1],Yes
same,Compatibility with Doxycycline Hyclate,[2]; [4],Yes
same,Compatibility with Doxycycline Monohydrate,[3]; [4],Yes
Sorbitan Monostearate,Compatibility with Minocycline HCl,[1],Yes
same,Compatibility with Doxycycline Hyclate,[2]; [4],Yes
OCC(O)CO [Glycerin],Compatibility with MCH: hydrophilic solvents,[1]; visual inspection,incompatible
same,Compatibility with Minocycline HCl (discussion of compatibility studies),[1],intensive oxidation
same,Compatibility with Minocycline HCl,[1],No
same,Compatibility with Doxycycline Hyclate,[2]; [4],No
same,Compatibility with Doxycycline Monohydrate,[3]; [4],No
SPAN 80,Compatibility with MCH: surfactants,[1]; visual inspection,incompatible
O=C1O[C@H]([C@@H](O)CO)C(O)=C1O [ascorbic acid],Effect of added anti-oxidant on oxidation of Minocycline HCl,[1],did not prevent the oxidation
same,Effect of added anti-oxidant on oxidation of Doxycycline Hyclate,[2],did not prevent the oxidation
same,Effect of added anti-oxidant on oxidation of Doxycycline Monohydrate,[3],did not prevent the oxidation
CCCCCCCCCCCCCC(=O)OC(C)C [Isopropyl myristate],Compatibility with MCH: oily emollients and waxes,[1]; visual inspection,compatible
CC1CCC(C(C)C)C(O)C1 (stereo not shown) [Menthol],Compatibility with MCH: additives,[1]; [5],compatible
CCCCCCCCCCCCCCCCCCO [Stearyl alcohol],Compatibility with MCH: foam adjuvants,[1]; [5],compatible
same,Compatibility with Minocycline HCl,[1],Yes
same,Compatibility with Doxycycline Hyclate,[2]; [4],Yes
